The conditions of this series: 101.33 kPa, Liquid, Capillary tube (Ostwald / Ubbelohde) method.

Numbers after ± are expanded uncertainties.

By viscosity is commonly meant the resistance of a fluid to flow. For `CCC(C)O` (stereo unspecified) [butan-2-ol], the viscosity turned out to be 3.08 ± 0.027 mPa·s (298.15 K) and 1.794 ± 0.016 mPa·s (313.15 K).

As to `CCCCCC` [hexane], the viscosity by setting is: (298.15 K) 0.2944 ± 0.0034 mPa·s; (313.15 K) 0.2537 ± 0.0031 mPa·s.

Turning to `CCCCCl` [1-chlorobutane], the viscosity stood at 0.4273 ± 0.0045 mPa·s (298.15 K) and 0.3645 ± 0.004 mPa·s (313.15 K).

The values above are taken from the NIST ThermoML archive (doi:10.1021/je020114l).
